Results: the Kinase Knowledgebase extract (Sharma et al. 2016)

Tests used:
CDK2 [1] = target: CDK2 (UniProt P24941); test: Enzyme Assay
CDK2 [2] = target: CDK2 (UniProt P24941); test: Enzyme Assay; remark: listed apart in the source

| IC50 (CDK2 [1]) [µM] | IC50 (CDK2 [2]) [µM] | SMILES |
| --- | --- | --- |
| < 20 | – | CC(C)(C)C(=O)Nc1c[nH]nc1C(=O)Nc1ccc(F)cc1 |
| – | < 20 | COc1cscc1C(=O)Nc1c[nH]nc1C(=O)N[C@H]1CC[C@H](O)CC1 |
| – | < 750 | O=C(N[C@H]1CC[C@H](O)CC1)c1n[nH]cc1NC(=O)N1CCOCC1 |
| – | < 20 | COCCN1CCC(NC(=O)c2n[nH]cc2NC(=O)c2c(F)cccc2F)CC1 |
| < 20 | – | O=C(Nc1cccc(CO)c1)c1n[nH]cc1NC(=O)c1c(F)cccc1F |
| < 20 | – | O=C(NCC1CCCNC1)c1n[nH]cc1NC(=O)c1c(F)cccc1F (stereo unspecified) |
| – | < 20 | CN1CCC(N2CCC(NC(=O)c3n[nH]cc3NC(=O)c3c(F)cccc3F)CC2)CC1 |
| – | < 20 | CC(C)(C)N1CCC(NC(=O)c2n[nH]cc2NC(=O)c2c(F)cccc2F)CC1 |
| – | < 20 | O=C(Nc1c[nH]nc1C(=O)NC1CCNCC1)c1ccccc1N1CCOCC1 |
| < 20 | – | O=C(Nc1c[nH]nc1C(=O)Nc1ccc(F)cc1)c1ccc(O)nc1 |
| < 20 | – | O=C(Nc1cc(F)ccc1OCCN1CCCC1)c1n[nH]cc1NC(=O)c1c(F)cccc1F |
| – | < 20 | O=C(Nc1ccccc1)Nc1c[nH]nc1C(=O)N[C@H]1CC[C@H](O)CC1 |
| < 20 | – | CC1(C(=O)Nc2c[nH]nc2C(=O)Nc2ccc(F)cc2)CC1 |
| – | < 20 | COc1ccccc1C(=O)Nc1c[nH]nc1C(=O)NC1CCNCC1 |
| – | < 20 | O=C(NC1CCN(CC(F)(F)F)CC1)c1n[nH]cc1NC(=O)c1c(F)cccc1F |
| < 20 | – | O=C(Nc1c[nH]nc1C(=O)Nc1ccc(F)cc1)c1ccc(F)cc1 |
| – | < 20 | O=C(NC1CCN(c2cccc(Cl)n2)CC1)c1n[nH]cc1NC(=O)c1c(F)cccc1F |
| < 20 | – | O=C(NC1CCCC1)c1n[nH]cc1NC(=O)c1c(F)cccc1F |
| < 20 | – | Cc1ccc(C(=O)Nc2c[nH]nc2C(=O)Nc2ccc(F)cc2)cc1 |
| < 20 | – | COc1ccc(F)c(C(=O)Nc2c[nH]nc2C(=O)Nc2ccc(F)cc2)c1 |
| < 20 | – | O=C(NCC1CCOCC1)c1n[nH]cc1NC(=O)c1c(F)cccc1F |
| < 750 | – | Cc1ccc(C)n1-c1c[nH]nc1C(=O)Nc1ccc(F)cc1 |
| < 20 | – | O=C(Cc1c[nH]c2ccccc12)Nc1c[nH]nc1C(=O)Nc1ccc(F)cc1 |

| IC50 (CDK2 [1]) [µM] | IC50 (CDK2 [2]) [µM] | SMILES |
| --- | --- | --- |
| < 20 | – | Cn1cc(CC(=O)Nc2c[nH]nc2C(=O)Nc2ccc(F)cc2)c2ccccc21 |
| < 20 | – | CN1CCC(NC(=O)c2n[nH]cc2NC(=O)c2c(F)cccc2F)CC1 |
| < 20 | – | CN1CCN(c2ccc(CNC(=O)c3n[nH]cc3-c3cccc(O)c3)cc2)CC1 |
| < 20 | – | NC(=O)c1n[nH]cc1NC(=O)c1c(F)cccc1F |
| < 20 | – | CC(C)Nc1c[nH]nc1C(=O)Nc1ccc(F)cc1 |
| < 20 | – | O=C(Nc1c[nH]nc1C(=O)Nc1ccc(F)cc1)c1ccc([N+](=O)[O-])cc1 |
| < 20 | – | O=C(Nc1ccccc1)c1n[nH]cc1-c1cccc(CO)c1 |
| < 20 | – | COc1ccc(NC(=O)c2n[nH]cc2-c2ccccc2)cn1 |
| < 20 | – | O=C(CCc1ccc(Cl)cc1)Nc1c[nH]nc1C(=O)Nc1ccc(F)cc1 |
| < 20 | – | O=C(CS(=O)(=O)c1ccccc1)Nc1c[nH]nc1C(=O)Nc1ccc(F)cc1 |
| < 750 | – | CC1(C)CC(NC(=O)c2n[nH]cc2NC(=O)c2c(F)cccc2F)CC(C)(C)N1 |
| < 20 | – | O=C(NC1CCOCC1)c1n[nH]cc1NC(=O)c1c(F)cccc1F |
| < 20 | – | O=C(Nc1c[nH]nc1C(=O)Nc1ccc(F)cc1)c1ccc2cc[nH]c2c1 |
| < 20 | – | O=C(Nc1ccc(F)cc1)c1n[nH]cc1NC(=O)c1c(O)cccc1F |
| < 20 | – | CC1CCCC(C)N1CCNC(=O)c1n[nH]cc1NC(=O)c1c(F)cccc1F (stereo unspecified) |
| < 20 | – | O=C(NCc1ccccc1)c1n[nH]cc1NC(=O)c1c(F)cccc1F |
| < 20 | – | Cc1cccc(C(=O)Nc2c[nH]nc2C(=O)Nc2ccc(F)cc2)c1 |
| < 20 | – | O=C(Nc1ccc(F)cc1)c1n[nH]cc1NC(=O)C1(O)CC1 |
| < 20 | – | Cc1ccoc1C(=O)Nc1c[nH]nc1C(=O)Nc1ccc(F)cc1 |
| < 20 | – | O=C(NCCN1CCOCC1)c1n[nH]cc1NC(=O)c1c(F)cccc1F |
| < 20 | – | O=C(Nc1ccc(F)cc1)c1n[nH]cc1NC1CCCCC1 |
| < 20 | – | O=C(Nc1c[nH]nc1C(=O)Nc1ccc(F)cc1)c1cccc([N+](=O)[O-])c1 |
| < 20 | – | O=C(NCC1CCCCC1)c1n[nH]cc1NC(=O)c1c(F)cccc1F |

| IC50 (CDK2 [1]) [µM] | IC50 (CDK2 [2]) [µM] | SMILES |
| --- | --- | --- |
| < 20 | – | O=C(Nc1ccc(F)cc1)c1n[nH]cc1Nc1ccccn1 |
| < 20 | – | CN1CCN(c2c[nH]nc2C(=O)Nc2ccc(F)cc2)CC1 |
| < 20 | – | O=C(CCN1CCOCC1)Nc1c[nH]nc1C(=O)Nc1ccc(F)cc1 |
| < 20 | – | O=C(NCc1ccccn1)c1n[nH]cc1NC(=O)c1c(F)cccc1F |
| < 20 | – | CNS(=O)(=O)Cc1ccc(CNC(=O)c2n[nH]cc2-c2ccc(Cl)cc2Cl)cc1 |
| < 20 | – | O=C(NCc1c(F)cccc1F)c1n[nH]cc1NC(=O)c1c(F)cccc1F |
| < 20 | – | CC(=O)N1CCC(C(=O)Nc2c[nH]nc2C(=O)Nc2ccc(F)cc2)CC1 |
| < 20 | – | O=C(Nc1c[nH]nc1C(=O)Nc1ccc(F)cc1)c1ccccn1 |
| < 20 | – | CC(CO)Nc1c[nH]nc1C(=O)Nc1ccc(F)cc1 (stereo unspecified) |
| < 20 | – | Cn1cc(N)nc1C(=O)Nc1c[nH]nc1C(=O)Nc1ccc(F)cc1 |
| < 20 | – | O=C(NC1CCN(Cc2ccccc2)C1)c1n[nH]cc1NC(=O)c1c(F)cccc1F (stereo unspecified) |
| < 20 | – | O=C(CCc1nnc[nH]1)Nc1c[nH]nc1C(=O)Nc1ccc(F)cc1 |
| < 20 | – | Cc1sccc1C(=O)Nc1c[nH]nc1C(=O)Nc1ccc(F)cc1 |
| < 20 | – | COc1cccc(C(=O)Nc2c[nH]nc2C(=O)Nc2ccc(F)cc2)c1 |
| < 20 | – | Cc1[nH]nc(C(=O)Nc2ccc(F)cc2)c1NC(=O)c1c(F)cccc1F |
| < 20 | – | O=C1CCC(C(=O)Nc2c[nH]nc2C(=O)Nc2ccc(F)cc2)N1 (stereo unspecified) |
| < 20 | – | O=C(Nc1c[nH]nc1C(=O)Nc1ccc(F)cc1)c1ccc2ccccc2n1 |
| < 20 | – | O=C(Cc1c[nH]cn1)Nc1c[nH]nc1C(=O)Nc1ccc(F)cc1 |
| < 20 | – | O=C(Nc1c[nH]nc1C(=O)Nc1ccc(F)cc1)c1ccsc1 |
| < 20 | – | CCC(CC)Nc1c[nH]nc1C(=O)Nc1ccc(F)cc1 |
| < 20 | – | Cc1nc[nH]c1-c1c[nH]nc1C(=O)Nc1ccc(F)cc1 |
| < 20 | – | O=C(Nc1ccccn1)c1n[nH]cc1NC(=O)c1c(F)cccc1F |
| < 750 | – | NC(=O)c1n[nH]cc1-c1ccccc1 |

| IC50 (CDK2 [1]) [µM] | IC50 (CDK2 [2]) [µM] | SMILES |
| --- | --- | --- |
| < 20 | – | COc1cccc(OC)c1C(=O)Nc1c[nH]nc1C(=O)Nc1ccc(F)cc1 |
| < 20 | – | O=C(CCN1CCCCC1)Nc1c[nH]nc1C(=O)Nc1ccc(F)cc1 |
| < 20 | – | O=C(NCc1ccccc1F)c1n[nH]cc1NC(=O)c1c(F)cccc1F |
| < 20 | – | O=C(Nc1c[nH]nc1C(=O)Nc1ccc(F)cc1)c1cccc(F)c1 |
| < 20 | – | CC(C)(C)OC(=O)N1CCCC(CNC(=O)c2n[nH]cc2NC(=O)c2c(F)cccc2F)C1 (stereo unspecified) |
| < 20 | – | CN1CCN(c2ccc(CNC(=O)c3n[nH]cc3NC(=O)c3c(F)cccc3F)cc2)CC1 |
| < 20 | – | O=C(NC1CCN(Cc2ccccc2)CC1)c1n[nH]cc1NC(=O)c1c(F)cccc1F |
| < 20 | – | CC(=O)Nc1c(C(=O)Nc2ccc(F)cc2)n[nH]c1C |
| < 20 | – | O=C(Nc1c[nH]nc1C(=O)Nc1ccc(F)cc1)c1ccoc1 |
| < 20 | – | O=C(Nc1ccc(F)cc1)c1n[nH]cc1Nc1nccnc1Cl |
| < 20 | – | O=C(Nc1c[nH]nc1C(=O)Nc1ccc(F)cc1)c1ccccc1O |
| < 20 | – | O=C(NCc1ccccc1Cl)c1n[nH]cc1NC(=O)c1c(F)cccc1F |
| < 20 | – | O=C(Nc1c[nH]nc1C(=O)Nc1ccc(F)cc1)c1cnc[nH]1 |
| < 750 | – | O=C(NCc1c(Cl)cccc1Cl)c1n[nH]cc1NC(=O)c1c(F)cccc1F |
| < 20 | – | O=C(CCO)Nc1c[nH]nc1C(=O)Nc1ccc(F)cc1 |
| < 20 | – | CN(c1c[nH]nc1C(=O)Nc1ccc(F)cc1)C1CCCCC1 |
| < 20 | – | COc1ccc(CNC(=O)c2n[nH]cc2NC(=O)c2c(F)cccc2F)cc1 |
| < 20 | – | O=C(Nc1ccc(F)cc1)c1n[nH]cc1Nc1cnccn1 |
| < 20 | – | O=C(Nc1ccc(F)cc1)c1n[nH]cc1N1CCOCC1 |
| < 20 | – | COC(=O)c1cccc(NC(=O)c2n[nH]cc2NC(=O)c2c(F)cccc2F)c1N |
| < 20 | – | COc1cccc(C(=O)Nc2c[nH]nc2C(=O)Nc2ccc(F)cc2)c1F |
| < 20 | – | Cc1onc(-c2ccccc2)c1C(=O)Nc1c[nH]nc1C(=O)Nc1ccc(F)cc1 |
| < 20 | – | O=C(Nc1c[nH]nc1C(=O)Nc1ccc(F)cc1)c1ccccc1[N+](=O)[O-] |

| IC50 (CDK2 [1]) [µM] | IC50 (CDK2 [2]) [µM] | SMILES |
| --- | --- | --- |
| < 20 | – | CN1CCN(CCC(=O)Nc2c[nH]nc2C(=O)Nc2ccc(F)cc2)CC1 |
| < 20 | – | O=C(Nc1cccc(CN2CCOCC2)c1)c1n[nH]cc1NC(=O)c1c(F)cccc1F |
| < 20 | – | CC(C)(C)C1CCC(NC(=O)c2n[nH]cc2NC(=O)c2c(F)cccc2F)CC1 (stereo unspecified) |
| < 750 | – | CN1CCN(c2ccc(CNC(=O)c3n[nH]cc3-c3ccc(Cl)cc3Cl)cc2)CC1 |
| < 750 | – | CN1CCN(c2ccc(CNC(=O)c3n[nH]cc3-c3ccccc3)cc2)CC1 |
| < 20 | – | O=C(Nc1c[nH]nc1C(=O)Nc1ccc(F)cc1)c1cc[nH]c1 |
| < 20 | – | O=C(Nc1c[nH]nc1C(=O)Nc1ccc(F)cc1)c1ccccc1F |
| < 20 | – | Nc1nnnn1CC(=O)Nc1c[nH]nc1C(=O)Nc1ccc(F)cc1 |
| < 20 | – | O=C(Nc1c[nH]nc1C(=O)Nc1ccc(F)cc1)c1ccccc1OCCN1CCCC1 |
| < 20 | – | CN1CCC(Oc2ccc(F)cc2NC(=O)c2n[nH]cc2NC(=O)c2c(F)cccc2F)CC1 |
| < 20 | – | O=C(CO)Nc1c[nH]nc1C(=O)Nc1ccc(F)cc1 |
| < 20 | – | O=C(Nc1ccc(F)cc1)c1n[nH]cc1NC(=O)C(F)(F)F |
| < 20 | – | O=C(Nc1ccc(F)cc1)c1n[nH]cc1NC(=O)c1c[nH]c2ccccc12 |
| < 20 | – | O=C(Nc1c[nH]nc1C(=O)Nc1ccc(F)cc1)c1ccc(CO)cc1 |
| < 20 | – | Cc1ccccc1C(=O)Nc1c[nH]nc1C(=O)Nc1ccc(F)cc1 |
| < 20 | – | O=C(Nc1c[nH]nc1C(=O)Nc1ccc(F)cc1)c1ccco1 |
| < 20 | – | O=C(Nc1ccccc1)c1n[nH]cc1-c1ccccc1 |
| < 20 | – | COc1ccccc1C(=O)Nc1c[nH]nc1C(=O)Nc1ccc(F)cc1 |
| < 20 | – | O=C(NC1CCC(C(=O)O)CC1)c1n[nH]cc1NC(=O)c1c(F)cccc1F (stereo unspecified) |
